Reference: US20220324865A1 (Bayer Aktiengesellschaft, priority 2018, published 2022)
Counter-ions that a name gives are not always drawn.

Biological target: T1, human EP3 receptor (Homo sapiens, UniProt P43115)
T1 construct: expressed in transfected cells; host or cells: CHO K1 (Chinese Hamster Ovary), stably co-transfected with Galpha16 and mitochondrial clytin
T1 sequence (P43115 1-390): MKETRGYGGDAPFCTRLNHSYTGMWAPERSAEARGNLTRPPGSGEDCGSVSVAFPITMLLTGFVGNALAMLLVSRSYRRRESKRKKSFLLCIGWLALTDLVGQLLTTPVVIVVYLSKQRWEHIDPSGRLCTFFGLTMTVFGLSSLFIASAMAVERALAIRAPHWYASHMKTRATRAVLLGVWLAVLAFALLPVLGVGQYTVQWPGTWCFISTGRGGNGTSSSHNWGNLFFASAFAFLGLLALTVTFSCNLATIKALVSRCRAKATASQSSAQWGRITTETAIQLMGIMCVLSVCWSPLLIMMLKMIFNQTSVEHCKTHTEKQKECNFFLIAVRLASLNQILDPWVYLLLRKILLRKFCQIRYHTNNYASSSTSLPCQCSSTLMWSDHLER
Test: Cellular in vitro assay for determining EP3 receptor activity (human EP3 cell line, sulprostone-stimulated calcium luminescence)
Assay type: cell-based
Conditions: CHO cells expressing human EP3 and mitochondrial Clytin; antagonist mode, sulprostone at EC50; read-out: EP3 CHO mtCLY ANTAG IC50
Outline: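 CHO K1 cells stably expressing human EP3 with Gα16 and mitochondrial Clytin, loaded overnight with coelenterazine. Compounds added 10 min before sulprostone at its EC50; antagonism read immediately as reduced calcium-driven luminescence, quadruplicate points.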

| Structure (SMILES) | IC50 [nM] |
| --- | --- |
| Cc1ccc(-c2cn3nc(C(=O)N[C@H](CCO)c4ccc(F)cc4)c(C(C)C)c3c(=O)[nH]2)cc1C [Example 1-92, 6-(3,4-Dimethylphenyl)-N-[(1R)-1-(4-fluorophenyl)-3-hydroxpropyl]-4-oxo-3-(propan-2-yl)-4,5-dihydropyrazolo[1,5-a]pyrazine-2-carboxamide] | 0.625 |
| Cc1ccc(-c2cn3nc(C(=O)NCC(O)C(F)F)c(C4CC4)c3c(=O)[nH]2)cc1F (racemic) [6-369] | 3.05 |
| Cc1cccc2ncc(-c3cn4nc(C(=O)NC(CO)c5cc(Cl)cc(Cl)c5)c(C(C)C)c4c(=O)[nH]3)cc12 (centres unmarked) [Example 4-66, N-[1-(3,5-Dichlorophenyl)-2-hydroxyethyl]-3-isopropyl-6-(5-methyl-3-quinolyl)-4-oxo-5H-pyrazolo[1,5-a]pyrazine-2-carboxamide] | 3.9 |
| Cc1cc(CNC(=O)c2nn3c(C)c(-c4ccc5ccccc5c4)[nH]c(=O)c3c2C)on1 [Example 3-15, 3,7-Dimethyl-N-[(3-methyl-1,2-oxazol-5-yl)methyl]-6-(naphthalen-2-yl)-4-oxo-4,5-dihydropyrazolo[1,5-a]pyrazine-2-carboxamide] | 9.55 |
| Cc1cc(-c2cn3nc(C(=O)NC4(c5ccc(F)cc5)CN(C)C4)c(C(F)(F)C(F)(F)F)c3c(=O)[nH]2)ccc1Cl [6-480] | 3.05 |
| CC(NC(=O)c1nn2cc(-c3ccc4ccccc4c3)[nH]c(=O)c2c1C#N)c1ccc(Cl)c(Cl)c1 (centres unmarked) [Example 3-54, 3-Cyano-N-[1-(3,4-dichlorophenyl)ethyl]-6-(2-naphthyl)-4-oxo-5H-pyrazolo[1,5-a]pyrazine-2-carboxamide] | 6.95 |
| COCc1c(C(=O)N[C@@H](c2ccc(F)cc2)C(F)(F)CO)nn2cc(-c3ccc(Cl)c(C)c3)[nH]c(=O)c12 [6-621] | 1.15 |
| Cc1cc(-c2cn3nc(C(=O)NC4CC(F)(F)C4)c(C(F)(F)F)c3c(=O)[nH]2)ccc1Cl [6-225] | 7.4 |
| COc1ccc(C2(NC(=O)c3nn4cc(-c5ccc(C)c(Cl)c5)[nH]c(=O)c4c3C3CC3)CN(C)C2)cc1 [6-257] | 3.3 |
| Cc1cc(-c2cn3nc(C(=O)NC4(c5ccc(F)cc5)CN(C)C4)c(C(F)(F)F)c3c(=O)[nH]2)ccc1Cl [6-207] | 4.35 |
| N#Cc1c(C(=O)NCCn2ccc(C3CC3)n2)nn2cc(-c3ccc4ccccc4c3)[nH]c(=O)c12 [Example 3-77, 3-Cyano-N-[2-(3-cyclopropyl-1H-pyrazol-1-yl)ethyl]-6-(naphthalen-2-yl)-4-oxo-4,5-dihydropyrazolo[1,5-a]pyrazine-2-carboxamide] | 4.65 |
| Cc1cc(-c2cn3nc(C(=O)N[C@@H](c4ccc(F)cc4)C(F)(F)CO)c(C(C)C)c3c(=O)[nH]2)ccc1Cl [6-605] | 3.8 |
| CCN1CC(NC(=O)c2cc3c(=O)[nH]c(-c4ccc5ccccc5c4)cn3n2)(c2ccc(F)cc2)C1 [Example 1-145, N-[3-(4-Fluorophenyl)-1-ethylazetidin-3-yl]-6-(naphthalen-2-yl)-4-oxo-4,5-dihydropyrazolo[1,5-a]-pyrazine-2-carboxamide formic acid salt] | 7.05 |
| COC[C@@H](NC(=O)c1nn2cc(-c3ccc(C)c(C)c3)[nH]c(=O)c2c1C#N)c1ccccc1 [Example 1-74, 3-Cyano-6-(3,4-dimethylphenyl)-N-[(1S)-2-methoxy-1-phenylethyl]-4-oxo-4,5-dihydropyrazolo-[1,5-a]pyrazine-2-carboxamide] | 0.92 |
| Cc1cccc2ncc(-c3cn4nc(C(=O)NC5(c6ccccc6)CCCC5)c(C(C)C)c4c(=O)[nH]3)cc12 [Example 4-73, 6-(5-Methylquinolin-3-yl)-4-oxo-N-(1-phenylcyclopentyl)-3-(propan-2-yl)-4,5-dihydropyrazolo[1,5-a]pyrazine-2-carboxamide] | 2.35 |
| COc1ccc([C@@H](C)NC(=O)c2nn3cc(-c4ccc5ccccc5c4)[nH]c(=O)c3c2C(F)(F)F)cn1 [Example 1-79, N-[(1R)-1-(6-Methoxpyridin-3-yl)ethyl]-6-(naphthalen-2-yl)-4-oxo-3-(trifluoromethyl)-4,5-dihydro-pyrazolo[1,5-a]pyrazine-2-carboxamide] | 0.6 |
| CC(NC(=O)c1nn2cc(-c3ccc4ccccc4c3)[nH]c(=O)c2c1C(F)(F)F)c1cnc(OCC(F)(F)F)cn1 (centres unmarked) [Example 1-117, 6-(2-Naphthyl)-4-oxo-N-[1-[5-(2,2,2-trifluoroethoxy)pyrazin-2-yl]ethyl]-3-(trifluoromethyl)-5H-pyrazolo[1,5-a]pyrazine-2-carboxamide] | 1.38 |
| CC[C@@H](C)NC(=O)c1nn2cc(-c3ccc(Cl)c(C)c3)[nH]c(=O)c2c1C1CC1 [6-332] | 2 |
| COC(=O)C(NC(=O)c1cc2c(=O)[nH]c(-c3ccc4ccccc4c3)cn2n1)c1ccc(F)cc1 (centres unmarked) [6-17] | 3.75 |
| Cc1c(C(=O)NCc2ccncc2)nn2c(C)c(-c3ccc4ccccc4c3)[nH]c(=O)c12 [Example 3-64, 3,7-Dimethyl-6-(naphthalen-2-yl)-4-oxo-N-[(pyridin-4-yl)methyl]-4,5-dihydropyrazolo[1,5-a]pyrazine-2-carboxamide] | 4.4 |
| C[C@H](NC(=O)c1nn2cc(-c3cc(Cl)c(Cl)cc3F)[nH]c(=O)c2c1C1CC1)C1CC1 [6-581] | 1.6 |

| Structure (SMILES) | IC50 [nM] |
| --- | --- |
| Cc1cc(-c2cn3nc(C(=O)N[C@@H](c4ccc(F)cc4)C(F)(F)CO)c(C4CC4)c3c(=O)[nH]2)ccc1Cl [Example 1-172, 6-(4-Chloro-3-methylphenyl)-3-cyclopropyl-N-[(1S)-2,2-difluoro-1-(4-fluorophenyl)-3-hydroxpropyl]-4-oxo-4,5-dihydropyrazolo[1,5-a]pyrazine-2-carboxamide] | 0.86 |
| Cn1cc(CNC(=O)c2nn3cc(-c4ccc5ccccc5c4)[nH]c(=O)c3c2C#N)cn1 [Example 3-45, 3-Cyano-N-[(1-methyl-1H-pyrazol-4-yl)methyl]-6-(naphthalen-2-yl)-4-oxo-4,5-dihydropyrazolo[1,5-a]pyrazine-2-carboxamide] | 8.75 |
| CC[C@H](C)NC(=O)c1nn2cc(-c3ccc(C)c(Cl)c3)[nH]c(=O)c2c1C(F)(F)F [6-190] | 2.25 |
| CC(C)(O)[C@@H](NC(=O)c1nn2cc(-c3ccc(Cl)c(F)c3)[nH]c(=O)c2c1C(F)(F)F)c1ccc(F)cc1 [6-649] | 9.97 |
| Cc1ccc(-c2cn3nc(C(=O)NC(C)c4cnc(OCC(F)(F)F)cn4)cc3c(=O)[nH]2)cc1C (centres unmarked) [6-2] | 3.85 |
| O=C(NC(CO)C(F)(F)F)c1nn2cc(-c3ccc(Cl)c(F)c3)[nH]c(=O)c2c1C1CC1 (single isomer, unassigned) [6-94] | 5.8 |
| COc1ccc(CNC(=O)c2cc3c(=O)[nH]c(-c4ccc(C)c(Cl)c4)c(C)n3n2)cc1OC [Example 1-129, 6-(3-Chloro-4-methylphenyl)-N-(3,4-dimethoxybenzyl)-7-methyl-4-oxo-4,5-dihydropyrazolo-[1,5-a]pyrazine-2-carboxamide] | 7.82 |
| N#Cc1c(C(=O)NC2(c3ccc(Cl)cc3)CCC2)nn2cc(-c3ccc4ccccc4c3)[nH]c(=O)c12 [Example 3-62, N-[1-(4-Chlorophenyl)cyclobutyl]-3-cyano-6-(naphthalen-2-yl)-4-oxo-4,5-dihydropyrazolo[1,5-a]pyrazine-2-carboxamide] | 4 |
| CCC1(NC(=O)c2cc3c(=O)[nH]c(-c4ccc5ccccc5c4)cn3n2)CN(C(=O)OC(C)(C)C)C1 [Example 1-5, tert.-Butyl 3-ethyl-3-({[6-(naphthalen-2-yl)-4-oxo-4,5-dihydropyrazolo[1,5-a]pyrazin-2-yl]carbonyl}-amino)azetidine-1-carboxylate] | 2.7 |
| Cc1cc(-c2cn3nc(C(=O)NC(c4ccc(F)cc4)C4(O)CC4)c(C4CC4)c3c(=O)[nH]2)ccc1F (racemic) [6-650] | 1.55 |
| COc1ccc(C(NC(=O)c2nn3cc(-c4ccc5ccccc5c4)[nH]c(=O)c3c2C#N)C2CC2)cc1 (centres unmarked) [Example 3-56, 3-Cyano-N-[cyclopropyl(4-methoxyphenyl)methyl]-6-(2-naphthyl)-4-oxo-5H-pyrazolo[1,5-a]pyrazine-2-carboxamide] | 3.15 |
| COC[C@H](NC(=O)c1cc2c(=O)[nH]c(-c3ccc(C)c(C)c3)cn2n1)c1ccccc1 [6-50] | 1.3 |
| CC[C@@H](NC(=O)c1nn2cc(-c3cnc4cccc(C)c4c3)[nH]c(=O)c2c1C(C)C)c1ccccc1 [Example 4-49, 6-(5-Methylquinolin-3-yl)-4-oxo-N-[(1R)-1-phenylpropyl]-3-(propan-2-yl)-4,5-dihydropyrazolo[1,5-a]pyrazine-2-carboxamide] | 3.95 |
| Cc1ccc(-c2cn3nc(C(=O)N[C@H](CCO)c4ccc(F)cc4)cc3c(=O)[nH]2)cc1Cl [6-122] | 0.88 |
| C[C@H](NC(=O)c1nn2cc(-c3ccc(Cl)c(Cl)c3)[nH]c(=O)c2c1C1CC(F)(F)C1)C1CC1 [6-553] | 2.8 |
| Cc1cc(-c2cn3nc(C(=O)N[C@@H](C)C4CC4)c(C(F)(F)F)c3c(=O)[nH]2)ccc1Cl [6-214] | 1.35 |
| Cc1cc(-c2cn3nc(C(=O)NC(c4ccc(F)cc4)C4(O)CC4)c(C(F)(F)F)c3c(=O)[nH]2)ccc1Cl (single isomer, unassigned) [6-212] | 8.15 |
| Cc1ccc(-c2cn3nc(C(=O)N[C@@H](c4ccc(F)cc4)C(C)(C)O)c(C4CC4)c3c(=O)[nH]2)cc1C [6-440] | 1.05 |
| CC(NC(=O)c1cc2c(=O)[nH]c(-c3ccc4ccccc4c3)cn2n1)c1ccc(F)cc1 (centres unmarked) [6-19] | 3.1 |
| COc1ccc(-c2cn3nc(C(=O)N[C@@H](c4ccc(F)cc4)C(C)(C)O)c(C4CC4)c3c(=O)[nH]2)cc1F [6-587] | 0.83 |
